Data as given in patent publication US9636308B2, “High drug load buprenorphine microspheres and method of producing same” (Oakwood Laboratories LLC, priority 2013, dated 2017).

Assay: Solubility of buprenorphine in solvent systems by visual observation
From the text: DCM was used as the main solvent and BzOH as the co-solvent.

Compound: CO[C@@]12CC[C@@]3(C[C@@H]1[C@](C)(O)C(C)(C)C)[C@H]1Cc4ccc(O)c5c4[C@@]3(CCN1CC1CC1)[C@H]2O5.Cl [Buprenorphine (salt form), Buprenorphine hydrochloride]
- Increase of solubility by addition of BzOH to DCM (DCM:BzOH 2:1 by weight versus DCM alone): ~46 fold
- Solubility (solvent DCM with benzyl alcohol co-solvent (33% by weight; 2:1 DCM:BzOH)): 0.083 g/g
- Solubility (solvent DCM, no co-solvent): 0.0018 g/g
